# Tested on: Akt
# Experiment: Akt kinase activity assay (GSK3-α phosphorylation, Western blotting)
# Type: biochemical
# Conditions: not given
# Description: Akt kinase activity was determined by commercial Akt assay kit according to the manufacturer's directions. Phosphorylation states of GSK3-α were determined by Western blotting, so as to evaluate the effect of various ugonins on Akt activity.
row,Compound,Akt activity
1,"C=C1CCCC(C)(C)[C@H]1Cc1c(O)cc2oc(-c3ccc(O)c(O)c3)cc(=O)c2c1O [ugonin J, (R)-2-(3,4-dihydroxyphenyl)-6-((2,2-dimethyl-6-methylenecyclohexyl)methyl)-5,7-dihydroxy-4H-chromen-4-one]",promote Akt activity

# Tested on: BRIN-BD11 cells
# Experiment: Glucose stimulated insulin secretion (HTRF insulin assay)
# Type: cell-based, rat
# Conditions: below the concentration of 20 μM; 16.7 mM glucose, 20 min
# Description: The clonal rat pancreatic β-cell line (BRIN-BD11) was grown as a monolayer in culture dishes at 37° C. under 5% CO2/air with 90% humidity. Cells were maintained in RPMI 1640 medium containing 10% foetal bovine serum and 5% penicillin and streptomycin mixture.
# BRIN-BD11 cells were plated on 24-well plates (0.5×10^5 cells/well) and incubated for 48 hours with media containing 5.6 mM glucose. Before performing acute insulin secretion test, cells were pre-incubated with 1.1 mM glucose in Krebs-Ringer Bicarbonate Buffer for 45 min at 37° C. Then, cells were challenged with vehicle (DMSO) or various ugonins in 16.7 mM glucose in Krebs-Ringer Bicarbonate Buffer for 20 min. The media were collected for insulin determination. Insulin concentrations were quantified by the Homogeneous Time-Resolved Fluorescence (HTRF) insulin assay and normalized to a million of total cell numbers.
# Data were presented as mean±standard error of the mean. Statistical analyses were performed using GraphPad Prism (GraphPad, CA, USA). Single parameter-based comparisons were obtained from the unpaired student's t-test. P values less than 0.05 and 0.01 were considered to be significant.
row,Compound,insulin secretion of BRIN-BD11 cells
1,"COc1c(-c2ccc(O)cc2)oc2c3c(cc(O)c2c1=O)OC(C)C3(C)C (stereo not shown) [ugonin C, 5-hydroxy-2-(4-hydroxyphenyl)-3-methoxy-8,9,9-trimethyl-8,9-dihydro-4H-furo[2,3-h]chromen-4-one]",significantly enhance
2,"CC1Oc2cc(O)c3c(=O)c(O)c(-c4ccc(O)cc4)oc3c2C1(C)C (stereo not shown) [ugonin F, 3,5-dihydroxy-2-(4-hydroxyphenyl)-8,9,9-trimethyl-8,9-dihydro-4H-furo[2,3-h]chromen-4-one]",significantly enhance
3,"C=C1CCCC(C)(C)[C@H]1Cc1c(O)cc2oc(-c3ccc(O)c(O)c3)cc(=O)c2c1O [ugonin J, (R)-2-(3,4-dihydroxyphenyl)-6-((2,2-dimethyl-6-methylenecyclohexyl)methyl)-5,7-dihydroxy-4H-chromen-4-one]",significantly enhance
4,"C=C1CCCC(C)(C)[C@H]1Cc1c(OC)cc2oc(-c3ccc(O)c(O)c3)cc(=O)c2c1O [ugonin K, (R)-2-(3,4-dihydroxyphenyl)-6-((2,2-dimethyl-6-methylenecyclohexyl)methyl)-5-hydroxy-7-methoxy-4H-chromen-4-one]",significantly enhance
5,"CC1=CCCC(C)(C)C1Cc1c(O)c(O)cc2oc3c(=O)c4c(O)cc(O)cc4oc3c12 (stereo not shown) [ugonin M, 1,3,7,8-tetrahydroxy-6-((2,6,6-trimethylcyclohex-2-en-1-yl)methyl)-11H-benzofuro[3,2-b]chromen-11-one]",significantly enhance
6,"CC1Oc2cc3oc(-c4ccc(O)c(O)c4)cc(=O)c3c(O)c2C1(C)C (stereo not shown) [ugonin T, 7-(3,4-dihydroxyphenyl)-4-hydroxy-2,3,3-trimethyl-2,3-dihydro-5H-furo[3,2-g]chromen-5-one]",significantly enhance

# Source: patent US10272124B2, “Use of helminthostachys, ugonins or flavone-based compounds for the treatment or prevention of metabolic diseases” (National Research Institute of Chinese Medicine, Ministry …, priority 2016, dated 2019)
